Holding throughout (assay): relative viability (nuclei count vs DMSO), 5 days (fraction); higher = more cells survive
Compound in the experiment “Entinostat + Palbociclib”: Nc1ccccc1NC(=O)c1ccc(CNC(=O)OCc2cccnc2)cc1 [Entinostat] + CC(=O)c1c(C)c2cnc(Nc3ccc(N4CCNCC4)cn3)nc2n(C2CCCC2)c1=O [Palbociclib] (partner 0.5 µM)
The essentials:
(§1)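 Relative viability was taken as the ratio of nuclei in treated wells to nuclei in vehicle wells. Lung cancer cell lines in 1536-well plates received compounds by pin tool one day after seeding, either one drug alone or a fixed anchor-drug dose plus five library-drug doses (not always all listed) in √10 steps. Nuclei were counted on 4× images after 5 days of treatment, and values are medians of duplicate plates.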

Compound in the experiment “SGI-1776 + OSI-027”: CN1CCC(CNc2ccc3ncc(-c4cccc(OC(F)(F)F)c4)n3n2)CC1 [SGI-1776] + COc1cccc2cc(-c3nc([C@H]4CC[C@H](C(=O)O)CC4)n4ncnc(N)c34)[nH]c12 [OSI-027] (partner 0.5 µM)
Put shortly: as §1

Compound in the experiment “Entinostat + Pictilisib”: Nc1ccccc1NC(=O)c1ccc(CNC(=O)OCc2cccnc2)cc1 [Entinostat] + CS(=O)(=O)N1CCN(Cc2cc3nc(-c4cccc5[nH]ncc45)nc(N4CCOCC4)c3s2)CC1 [Pictilisib] (partner 1 µM)
The essentials:
as §1

Compound in the experiment “Entinostat + Foretinib”: Nc1ccccc1NC(=O)c1ccc(CNC(=O)OCc2cccnc2)cc1 [Entinostat] + COc1cc2c(Oc3ccc(NC(=O)C4(C(=O)Nc5ccc(F)cc5)CC4)cc3F)ccnc2cc1OCCCN1CCOCC1 [Foretinib] (partner 0.25 µM)
Put shortly: as §1

In the case of NCI-H3122, the relative viability was found to be 0.191 in the experiment with Entinostat + Palbociclib (first compound 0.02 µM); 0.217 in the experiment with Entinostat + Palbociclib (first compound 0.06325 µM); 0.208 with Entinostat + Palbociclib (first compound 0.2 µM); 0.181 with Entinostat + Palbociclib (first compound 0.6325 µM); 0.187 with Entinostat + Palbociclib (first compound 2 µM); 0.988 with SGI-1776 + OSI-027 (first compound 0.08 µM). The relative viability stood at 0.967 with SGI-1776 + OSI-027 (first compound 0.8 µM); 0.926 with SGI-1776 + OSI-027 (first compound 2.53 µM); 0.862 in the experiment with SGI-1776 + OSI-027 (first compound 8 µM); 0.648 with Entinostat + Pictilisib (first compound 0.02 µM); 0.663 with Entinostat + Pictilisib (first compound 0.06325 µM); 0.678 with Entinostat + Pictilisib (first compound 0.2 µM). Besides, the relative viability with Entinostat + Pictilisib (first compound 0.6325 µM) came to 0.441; in the experiment with Entinostat + Pictilisib (first compound 2 µM), 0.298; with Entinostat + Foretinib (first compound 0.02 µM), 0.992; in the experiment with Entinostat + Foretinib (first compound 0.06325 µM) it was 0.995; with Entinostat + Foretinib (first compound 0.2 µM), 0.999; with Entinostat + Foretinib (first compound 0.6325 µM), 0.973. Also, the relative viability with Entinostat + Foretinib (first compound 2 µM) worked out at 0.776.
Regarding PC-3 [JPC-3], the relative viability with Entinostat + Palbociclib (first compound 0.02 µM) is 0.529; with Entinostat + Palbociclib (first compound 0.06325 µM), 0.47; with Entinostat + Palbociclib (first compound 0.2 µM), 0.486; in the experiment with Entinostat + Palbociclib (first compound 0.6325 µM) it was 0.442; with Entinostat + Palbociclib (first compound 2 µM) it was 0.378; in the experiment with SGI-1776 + OSI-027 (first compound 0.08 µM), 0.791. For the same cell line, the relative viability with SGI-1776 + OSI-027 (first compound 0.8 µM) turned out to be 0.818; with SGI-1776 + OSI-027 (first compound 2.53 µM) it was 0.74; with SGI-1776 + OSI-027 (first compound 8 µM), 0.672; in the experiment with Entinostat + Pictilisib (first compound 0.02 µM), 0.684; in the experiment with Entinostat + Pictilisib (first compound 0.06325 µM), 0.746; in the experiment with Entinostat + Pictilisib (first compound 0.2 µM), 0.623. The relative viability with Entinostat + Pictilisib (first compound 0.6325 µM) came to 0.387; with Entinostat + Pictilisib (first compound 2 µM), 0.306; with Entinostat + Foretinib (first compound 0.02 µM) it was 0.988; in the experiment with Entinostat + Foretinib (first compound 0.06325 µM), 0.977; with Entinostat + Foretinib (first compound 0.2 µM), 0.871; with Entinostat + Foretinib (first compound 0.6325 µM) it was 0.732. In the experiment with Entinostat + Foretinib (first compound 2 µM), the relative viability was found to be 0.41.
Regarding PC-14, the relative viability is 0.521 with Entinostat + Palbociclib (first compound 0.02 µM); 0.493 with Entinostat + Palbociclib (first compound 0.06325 µM); 0.449 in the experiment with Entinostat + Palbociclib (first compound 0.2 µM); 0.157 with Entinostat + Palbociclib (first compound 0.6325 µM); 0.0723 with Entinostat + Palbociclib (first compound 2 µM); 0.857 in the experiment with SGI-1776 + OSI-027 (first compound 0.08 µM). Also, the relative viability with SGI-1776 + OSI-027 (first compound 0.8 µM) was 0.945; with SGI-1776 + OSI-027 (first compound 2.53 µM), 0.671; with SGI-1776 + OSI-027 (first compound 8 µM), 0.0734; with Entinostat + Pictilisib (first compound 0.02 µM), 0.602; with Entinostat + Pictilisib (first compound 0.06325 µM), 0.516; with Entinostat + Pictilisib (first compound 0.2 µM) it was 0.5. Besides, the relative viability with Entinostat + Pictilisib (first compound 0.6325 µM) was determined as 0.189; with Entinostat + Pictilisib (first compound 2 µM) it was 0.0672; in the experiment with Entinostat + Foretinib (first compound 0.02 µM) it was 0.991; with Entinostat + Foretinib (first compound 0.06325 µM), 0.951; with Entinostat + Foretinib (first compound 0.2 µM), 0.969; in the experiment with Entinostat + Foretinib (first compound 0.6325 µM), 0.441. Besides, the relative viability with Entinostat + Foretinib (first compound 2 µM) amounted to 0.232.
In the case of RERF-LC-KJ, the relative viability with Entinostat + Palbociclib (first compound 0.02 µM) came to 1.06; with Entinostat + Palbociclib (first compound 0.06325 µM), 1.09; in the experiment with Entinostat + Palbociclib (first compound 0.2 µM), 1; with Entinostat + Palbociclib (first compound 0.6325 µM), 0.584; with Entinostat + Palbociclib (first compound 2 µM), 0.278; with SGI-1776 + OSI-027 (first compound 0.08 µM), 0.592. The relative viability in the experiment with SGI-1776 + OSI-027 (first compound 0.8 µM) stood at 0.52; in the experiment with SGI-1776 + OSI-027 (first compound 2.53 µM), 0.507; with SGI-1776 + OSI-027 (first compound 8 µM) it was 0.305; with Entinostat + Pictilisib (first compound 0.02 µM) it was 0.695; with Entinostat + Pictilisib (first compound 0.06325 µM), 0.527; in the experiment with Entinostat + Pictilisib (first compound 0.2 µM), 0.516. In addition, the relative viability in the experiment with Entinostat + Pictilisib (first compound 0.6325 µM) was 0.431; with Entinostat + Pictilisib (first compound 2 µM), 0.375; with Entinostat + Foretinib (first compound 0.02 µM), 0.853; with Entinostat + Foretinib (first compound 0.06325 µM), 0.856; in the experiment with Entinostat + Foretinib (first compound 0.2 µM), 0.84; in the experiment with Entinostat + Foretinib (first compound 0.6325 µM), 0.516. Further, in the experiment with Entinostat + Foretinib (first compound 2 µM), the relative viability is 0.285.
Turning to SK-LU-1, the relative viability was 0.361 in the experiment with Entinostat + Palbociclib (first compound 0.02 µM); 0.395 with Entinostat + Palbociclib (first compound 0.06325 µM); 0.361 with Entinostat + Palbociclib (first compound 0.2 µM); 0.311 in the experiment with Entinostat + Palbociclib (first compound 0.6325 µM); 0.316 with Entinostat + Palbociclib (first compound 2 µM); 0.397 with SGI-1776 + OSI-027 (first compound 0.08 µM). For the same cell line, the relative viability stood at 0.328 with SGI-1776 + OSI-027 (first compound 0.8 µM); 0.335 with SGI-1776 + OSI-027 (first compound 2.53 µM); 0.166 with SGI-1776 + OSI-027 (first compound 8 µM); 0.503 with Entinostat + Pictilisib (first compound 0.02 µM); 0.493 with Entinostat + Pictilisib (first compound 0.06325 µM); 0.622 with Entinostat + Pictilisib (first compound 0.2 µM). Besides, the relative viability turned out to be 0.38 in the experiment with Entinostat + Pictilisib (first compound 0.6325 µM); 0.333 with Entinostat + Pictilisib (first compound 2 µM); 0.865 with Entinostat + Foretinib (first compound 0.02 µM); 0.847 with Entinostat + Foretinib (first compound 0.06325 µM); 0.836 with Entinostat + Foretinib (first compound 0.2 µM); 0.589 in the experiment with Entinostat + Foretinib (first compound 0.6325 µM). In addition, the relative viability in the experiment with Entinostat + Foretinib (first compound 2 µM) turned out to be 0.447.
With SK-MES-1, the relative viability with Entinostat + Palbociclib (first compound 0.02 µM) came out at 0.31; in the experiment with Entinostat + Palbociclib (first compound 0.06325 µM), 0.395; with Entinostat + Palbociclib (first compound 0.2 µM), 0.394; with Entinostat + Palbociclib (first compound 0.6325 µM), 0.43; in the experiment with Entinostat + Palbociclib (first compound 2 µM), 0.422; with SGI-1776 + OSI-027 (first compound 0.08 µM) it was 0.673. For the same cell line, the relative viability is 0.585 with SGI-1776 + OSI-027 (first compound 0.8 µM); 0.649 with SGI-1776 + OSI-027 (first compound 2.53 µM); 0.314 in the experiment with SGI-1776 + OSI-027 (first compound 8 µM); 0.356 with Entinostat + Pictilisib (first compound 0.02 µM); 0.465 in the experiment with Entinostat + Pictilisib (first compound 0.06325 µM); 0.506 with Entinostat + Pictilisib (first compound 0.2 µM). The relative viability in the experiment with Entinostat + Pictilisib (first compound 0.6325 µM) worked out at 0.376; with Entinostat + Pictilisib (first compound 2 µM), 0.277; in the experiment with Entinostat + Foretinib (first compound 0.02 µM), 1.08; in the experiment with Entinostat + Foretinib (first compound 0.06325 µM), 1.09; with Entinostat + Foretinib (first compound 0.2 µM), 1.15; with Entinostat + Foretinib (first compound 0.6325 µM) it was 0.96. In the experiment with Entinostat + Foretinib (first compound 2 µM), the relative viability worked out at 0.712.
Regarding SW 1573, the relative viability in the experiment with Entinostat + Palbociclib (first compound 0.02 µM) was found to be 0.322; with Entinostat + Palbociclib (first compound 0.06325 µM) it was 0.486; with Entinostat + Palbociclib (first compound 0.2 µM), 0.434; in the experiment with Entinostat + Palbociclib (first compound 0.6325 µM), 0.428; with Entinostat + Palbociclib (first compound 2 µM), 0.311; in the experiment with SGI-1776 + OSI-027 (first compound 0.08 µM) it was 0.673. For the same cell line, the relative viability with SGI-1776 + OSI-027 (first compound 0.8 µM) came to 0.715; with SGI-1776 + OSI-027 (first compound 2.53 µM), 0.631; with SGI-1776 + OSI-027 (first compound 8 µM), 0.391; with Entinostat + Pictilisib (first compound 0.02 µM), 0.518; with Entinostat + Pictilisib (first compound 0.06325 µM) it was 0.506; with Entinostat + Pictilisib (first compound 0.2 µM), 0.451. The relative viability was 0.495 with Entinostat + Pictilisib (first compound 0.6325 µM); 0.344 with Entinostat + Pictilisib (first compound 2 µM); 0.966 with Entinostat + Foretinib (first compound 0.02 µM); 0.927 in the experiment with Entinostat + Foretinib (first compound 0.06325 µM); 0.877 in the experiment with Entinostat + Foretinib (first compound 0.2 µM); 0.917 with Entinostat + Foretinib (first compound 0.6325 µM). Also, in the experiment with Entinostat + Foretinib (first compound 2 µM), the relative viability was 0.7.

These data come from the supplement of paper PMC10307832.
